Source: patent publication US20050197350A1, “Novel quinoline, tetrahydroquinazoline, and pyrimidine derivatives and methods of treatment related to the use thereof” (TAISHO PHARMACEUTICAL CO., LTD., priority 2003, published 2005)

The compounds below were run on MCH receptors (assay: MCH receptor activity class (method not given)). Conditions: MCH receptor; class by percent of control at 10^-7 M or IC50.
In the case of `CN(C)c1cc(N[C@H]2CC[C@@H](CNC(=O)c3ccc(F)c(Cl)c3F)CC2)nc2ccccc12` [compound 189, 3-chloro-N-[(cis-4-{[4-(dimethylamino)quinolin-2-yl]amino}cyclohexyl)methy]-2,4-difluorobenzamide], the class is reported as 3 (Class 3 The value of percent of control at 10^−7 M was more than 60% or the value of IC50 was more than 200 nM.).
In the case of `CN(C)c1cc(N[C@H]2CC[C@@H](CNC(=O)CSc3ccccc3)CC2)nc2ccccc12` [compound 190], the class is reported as 3 (Class 3 The value of percent of control at 10^−7 M was more than 60% or the value of IC50 was more than 200 nM.).
`CN(C)c1cc(N[C@H]2CC[C@@H](CNC(=O)c3cccc(C(F)(F)F)c3F)CC2)nc2ccccc12` [compound 191] was tested, and the class was 3 (Class 3 The value of percent of control at 10^−7 M was more than 60% or the value of IC50 was more than 200 nM.).
`CN(C)c1cc(N[C@H]2CC[C@@H](CNC(=O)c3cc(C(F)(F)F)ccc3F)CC2)nc2ccccc12` [compound 192] was tested, and the class was 3 (Class 3 The value of percent of control at 10^−7 M was more than 60% or the value of IC50 was more than 200 nM.).
For `COc1cccc(CC(=O)NC[C@H]2CC[C@@H](Nc3cc(N(C)C)c4ccccc4n3)CC2)c1` [compound 194], the class was 3 (Class 3 The value of percent of control at 10^−7 M was more than 60% or the value of IC50 was more than 200 nM.).
`CN(C)c1cc(N[C@H]2CC[C@@H](CNC(=O)Cc3ccc(F)cc3)CC2)nc2ccccc12` [compound 195] was tested, and the class was 3 (Class 3 The value of percent of control at 10^−7 M was more than 60% or the value of IC50 was more than 200 nM.).
For `COc1ccc(CC(=O)NC[C@H]2CC[C@@H](Nc3cc(N(C)C)c4ccccc4n3)CC2)cc1` [compound 196], the class was 3 (Class 3 The value of percent of control at 10^−7 M was more than 60% or the value of IC50 was more than 200 nM.).
With `Cc1cc(C(=O)NC[C@H]2CC[C@@H](Nc3cc(N(C)C)c4ccccc4n3)CC2)c(C(F)(F)F)o1` [compound 197] the class was 3 (Class 3 The value of percent of control at 10^−7 M was more than 60% or the value of IC50 was more than 200 nM.).
`Cc1cc(C(=O)NC[C@H]2CC[C@@H](Nc3cc(N(C)C)c4ccccc4n3)CC2)c(C)o1` [compound 198, N-[(cis-4-{[4-(dimethylamino)quinolin-2-yl]amino}cyclohexyl)methyl]-2,5-dimethyl-3-furamide] was tested, and the class was 3 (Class 3 The value of percent of control at 10^−7 M was more than 60% or the value of IC50 was more than 200 nM.).
For `CCOc1ccccc1C(=O)NC[C@H]1CC[C@@H](Nc2cc(N(C)C)c3ccccc3n2)CC1` [compound 199], the class was 3 (Class 3 The value of percent of control at 10^−7 M was more than 60% or the value of IC50 was more than 200 nM.).
With `CN(C)c1cc(N[C@H]2CC[C@@H](CNC(=O)c3ccc(F)c(Cl)c3)CC2)nc2ccccc12` [compound 200] the class was 3 (Class 3 The value of percent of control at 10^−7 M was more than 60% or the value of IC50 was more than 200 nM.).
In the case of `Cc1ccc(C(=O)NC[C@H]2CC[C@@H](Nc3cc(N(C)C)c4ccccc4n3)CC2)cc1F` [compound 201, N-[(cis-4-{[4-(dimethylamino)quinolin-2-yl]amino}cyclohexyl)methyl]-3-fluoro-4-methylbenzamide], the class is reported as 3 (Class 3 The value of percent of control at 10^−7 M was more than 60% or the value of IC50 was more than 200 nM.).
With `CN(C)c1cc(N[C@H]2CC[C@@H](CNC(=O)CC3CCCC3)CC2)nc2ccccc12` [compound 202] the class was 3 (Class 3 The value of percent of control at 10^−7 M was more than 60% or the value of IC50 was more than 200 nM.).
In the case of `COc1cc(OC)cc(C(=O)NC[C@H]2CC[C@@H](Nc3cc(N(C)C)c4ccccc4n3)CC2)c1` [compound 203, N-[(cis-4-{[4-(dimethylamino)quinolin-2-yl]amino}cyclohexyl)methyl]-3,5-dimethoxybenzamide], the class is reported as 3 (Class 3 The value of percent of control at 10^−7 M was more than 60% or the value of IC50 was more than 200 nM.).
With `CN(C)c1cc(N[C@H]2CC[C@@H](CNC(=O)c3ccc(C#N)cc3)CC2)nc2ccccc12` [compound 204] the class was 3 (Class 3 The value of percent of control at 10^−7 M was more than 60% or the value of IC50 was more than 200 nM.).
